≈ marks a conversion by molar mass, not a printed value.
Experiments:
Pseudomonas aeruginosa [1] = experiment: Ratio of mutant prevention concentration to minimum Inhibitory concentration for Pseudomonas aeruginosa P327; type: functional
Pseudomonas aeruginosa [2] = experiment: Ratio of mutant prevention concentration to minimum Inhibitory concentration for Pseudomonas aeruginosa P338; type: functional
Acinetobacter baumannii [3] = experiment: Ratio of mutant prevention concentration to minimum Inhibitory concentration for Acinetobacter baumannii A851; type: functional
Pseudomonas aeruginosa [4] = experiment: Ratio of mutant prevention concentration to minimum Inhibitory concentration for Pseudomonas aeruginosa P341; type: functional
Acinetobacter baumannii [5] = experiment: Ratio of mutant prevention concentration to minimum Inhibitory concentration for Acinetobacter baumannii A891; type: functional
Pseudomonas aeruginosa [6] = experiment: Ratio of mutant prevention concentration to minimum Inhibitory concentration for Pseudomonas aeruginosa P340; type: functional
Pseudomonas aeruginosa [7] = experiment: Ratio of mutant prevention concentration to minimum Inhibitory concentration for Pseudomonas aeruginosa P356; type: functional
Pseudomonas aeruginosa [8] = experiment: Ratio of mutant prevention concentration to minimum Inhibitory concentration for Pseudomonas aeruginosa P323; type: functional
Pseudomonas aeruginosa [9] = experiment: Ratio of mutant prevention concentration to minimum Inhibitory concentration for Pseudomonas aeruginosa P365; type: functional
Pseudomonas aeruginosa [10] = experiment: Ratio of mutant prevention concentration to minimum Inhibitory concentration for Pseudomonas aeruginosa P328; type: functional
Acinetobacter baumannii [11] = experiment: Ratio of mutant prevention concentration to minimum Inhibitory concentration for Acinetobacter baumannii A867; type: functional
Pseudomonas aeruginosa [12] = experiment: Ratio of mutant prevention concentration to minimum Inhibitory concentration for Pseudomonas aeruginosa P335; type: functional
Acinetobacter baumannii [13] = experiment: Ratio of mutant prevention concentration to minimum Inhibitory concentration for Acinetobacter baumannii A903; type: functional
Acinetobacter baumannii [14] = experiment: Ratio of mutant prevention concentration to minimum Inhibitory concentration for Acinetobacter baumannii A865; type: functional
Acinetobacter baumannii [15] = experiment: Ratio of mutant prevention concentration to minimum Inhibitory concentration for Acinetobacter baumannii A850; type: functional
Acinetobacter baumannii [16] = experiment: Ratio of mutant prevention concentration to minimum Inhibitory concentration for Acinetobacter baumannii A929; type: functional
Pseudomonas aeruginosa [17] = experiment: Ratio of mutant prevention concentration to minimum Inhibitory concentration for Pseudomonas aeruginosa P322; type: functional
Acinetobacter baumannii [18] = experiment: Ratio of mutant prevention concentration to minimum Inhibitory concentration for Acinetobacter baumannii A885; type: functional
Pseudomonas aeruginosa [19] = experiment: Ratio of mutant prevention concentration to minimum Inhibitory concentration for Pseudomonas aeruginosa P353; type: functional
Acinetobacter baumannii [20] = experiment: Ratio of mutant prevention concentration to minimum Inhibitory concentration for Acinetobacter baumannii A896; type: functional
Pseudomonas aeruginosa [21] = experiment: Ratio of mutant prevention concentration to minimum Inhibitory concentration for Pseudomonas aeruginosa P337; type: functional
Klebsiella pneumoniae [22] = experiment: Antibacterial activity against beta-lactamase-positive ESBL-negative Klebsiella pneumoniae E473 after 24 hrs by agar dilution method; type: functional; conditions: E473, 24 h
Pseudomonas aeruginosa [23] = experiment: Antibacterial activity against Pseudomonas aeruginosa P328 after 24 hrs by agar dilution method; type: functional; conditions: P328, 24 h
Escherichia coli [24] = experiment: Antibacterial activity against beta-lactamase-positive ESBL-negative Escherichia coli E430 after 24 hrs by agar dilution method; conditions: E430, 24 h
Acinetobacter baumannii [25] = experiment: Antibacterial activity against Acinetobacter baumannii A928 after 24 hrs by agar dilution method; type: functional; conditions: A928, 24 h
Pseudomonas aeruginosa [26] = experiment: Antibacterial activity against Pseudomonas aeruginosa P358 after 24 hrs by agar dilution method; type: functional; conditions: P358, 24 h
Klebsiella pneumoniae [27] = experiment: Antibacterial activity against beta-lactamase-negative Klebsiella pneumoniae E358 after 24 hrs by agar dilution method; type: functional; conditions: E358, 24 h
Acinetobacter baumannii [28] = experiment: Antibacterial activity against Acinetobacter baumannii A849 after 24 hrs by agar dilution method; type: functional; conditions: A849, 24 h
Pseudomonas aeruginosa [29] = experiment: Antibacterial activity against Pseudomonas aeruginosa P373 after 24 hrs by agar dilution method; conditions: P373, 24 h
Acinetobacter baumannii [30] = experiment: Antibacterial activity against Acinetobacter baumannii A890 after 24 hrs by agar dilution method; type: functional; conditions: A890, 24 h
Klebsiella pneumoniae [31] = experiment: Antibacterial activity against beta-lactamase-negative Klebsiella pneumoniae E418 after 24 hrs by agar dilution method; type: functional; conditions: E418, 24 h
Acinetobacter baumannii [32] = experiment: Antibacterial activity against Acinetobacter baumannii A850 after 24 hrs by agar dilution method; type: functional; conditions: A850, 24 h
Klebsiella pneumoniae [33] = experiment: Antibacterial activity against beta-lactamase-positive ESBL-positive Klebsiella pneumoniae E457 after 24 hrs by agar dilution method; type: functional; conditions: E457, 24 h
Klebsiella pneumoniae [34] = experiment: Antibacterial activity against beta-lactamase-positive ESBL-negative Klebsiella pneumoniae E474 after 24 hrs by agar dilution method; type: functional; conditions: E474, 24 h
Acinetobacter baumannii [35] = experiment: Antibacterial activity against Acinetobacter baumannii A901 after 24 hrs by agar dilution method; type: functional; conditions: A901, 24 h
Pseudomonas aeruginosa [36] = experiment: Antibacterial activity against Pseudomonas aeruginosa P370 after 24 hrs by agar dilution method; conditions: P370, 24 h
Escherichia coli [37] = experiment: Antibacterial activity against beta-lactamase-positive ESBL-positive Escherichia coli E460 after 24 hrs by agar dilution method; conditions: E460, 24 h
Klebsiella pneumoniae [38] = experiment: Antibacterial activity against beta-lactamase-positive ESBL-negative Klebsiella pneumoniae E481 after 24 hrs by agar dilution method; type: functional; conditions: E481, 24 h
Acinetobacter baumannii [39] = experiment: Antibacterial activity against Acinetobacter baumannii A912 after 24 hrs by agar dilution method; type: functional; conditions: A912, 24 h
Klebsiella pneumoniae [40] = experiment: Antibacterial activity against beta-lactamase-negative Klebsiella pneumoniae E362 after 24 hrs by agar dilution method; type: functional; conditions: E362, 24 h
Acinetobacter baumannii [41] = experiment: Antibacterial activity against Acinetobacter baumannii A848 after 24 hrs by agar dilution method; type: functional; conditions: A848, 24 h
Klebsiella pneumoniae [42] = experiment: Antibacterial activity against beta-lactamase-positive ESBL-positive Klebsiella pneumoniae E476 after 24 hrs by agar dilution method; type: functional; conditions: E476, 24 h
Acinetobacter baumannii [43] = experiment: Antibacterial activity against Acinetobacter baumannii A897 after 24 hrs by agar dilution method; type: functional; conditions: A897, 24 h
Pseudomonas aeruginosa [44] = experiment: Antibacterial activity against Pseudomonas aeruginosa P338 after 24 hrs by agar dilution method; conditions: P338, 24 h
Escherichia coli [45] = experiment: Antibacterial activity against beta-lactamase-positive ESBL-negative Escherichia coli E412 after 24 hrs by agar dilution method; conditions: E412, 24 h
Acinetobacter baumannii [46] = experiment: Antibacterial activity against Acinetobacter baumannii A851 after 24 hrs by agar dilution method; type: functional; conditions: A851, 24 h
Klebsiella pneumoniae [47] = experiment: Antibacterial activity against beta-lactamase-negative Klebsiella pneumoniae E359 after 24 hrs by agar dilution method; type: functional; conditions: E359, 24 h
Acinetobacter baumannii [48] = experiment: Antibacterial activity against Acinetobacter baumannii A910 after 24 hrs by agar dilution method; type: functional; conditions: A910, 24 h
Acinetobacter baumannii [49] = experiment: Antibacterial activity against Acinetobacter baumannii A903 after 24 hrs by agar dilution method; type: functional; conditions: A903, 24 h
Escherichia coli [50] = experiment: Antibacterial activity against beta-lactamase-negative Escherichia coli E350 after 24 hrs by agar dilution method; conditions: E350, 24 h
Escherichia coli [51] = experiment: Antibacterial activity against beta-lactamase-positive ESBL-positive Escherichia coli E456 after 24 hrs by agar dilution method; conditions: E456, 24 h
Escherichia coli [52] = experiment: Antibacterial activity against beta-lactamase-positive ESBL-positive Escherichia coli E452 after 24 hrs by agar dilution method; conditions: E452, 24 h
Pseudomonas aeruginosa [53] = experiment: Antibacterial activity against Pseudomonas aeruginosa P326 after 24 hrs by agar dilution method; conditions: P326, 24 h
Acinetobacter baumannii [54] = experiment: Antibacterial activity against Acinetobacter baumannii A864 after 24 hrs by agar dilution method; type: functional; conditions: A864, 24 h
Escherichia coli [55] = experiment: Antibacterial activity against beta-lactamase-negative Escherichia coli E348 after 24 hrs by agar dilution method; conditions: E348, 24 h

Compound C[C@@H](O)[C@H]1C(=O)N2C(C(=O)O)=C(S[C@@H]3CN[C@H](CNS(N)(=O)=O)C3)[C@H](C)[C@H]12 [DORIPENEM] has a Ratio (Pseudomonas aeruginosa [1]) of 16, a Ratio (Pseudomonas aeruginosa [2]) of 16 and a Ratio (Acinetobacter baumannii [3]) of 4. For the same compound, the Ratio (Pseudomonas aeruginosa [4]) was 16, the Ratio (Acinetobacter baumannii [5]) was 4 and the Ratio (Pseudomonas aeruginosa [6]) was 8. It also gave a Ratio (Pseudomonas aeruginosa [7]) of over 16, a Ratio (Pseudomonas aeruginosa [8]) of 8 and a Ratio (Pseudomonas aeruginosa [9]) of 16. For the same compound, the Ratio (Pseudomonas aeruginosa [10]) was 2, the Ratio (Acinetobacter baumannii [11]) was 16 and the Ratio (Pseudomonas aeruginosa [12]) was 8. The Ratio (Acinetobacter baumannii [13]) was 4, the Ratio (Acinetobacter baumannii [14]) was 8 and the Ratio (Acinetobacter baumannii [15]) was 2. For the same compound, the Ratio (Acinetobacter baumannii [16]) was 2, the Ratio (Pseudomonas aeruginosa [17]) was 8 and the Ratio (Acinetobacter baumannii [18]) was 2. The Ratio (Pseudomonas aeruginosa [19]) was 4, the Ratio (Acinetobacter baumannii [20]) was 2 and the Ratio (Pseudomonas aeruginosa [21]) was 8.
C[C@@H](O)[C@H]1C(=O)N2C(C(=O)O)=C(SCCNC=N)C[C@H]12 [IMIPENEM ANHYDROUS] showed an MIC (Klebsiella pneumoniae [22]) of 4 µg/mL (≈ 13.4 µM), an MIC (Pseudomonas aeruginosa [23]) of 8 µg/mL (≈ 26.7 µM) and an MIC (Escherichia coli [24]) of 0.5 µg/mL (≈ 1.67 µM). It also gave an MIC (Acinetobacter baumannii [25]) of 0.5 µg/mL (≈ 1.67 µM), an MIC (Pseudomonas aeruginosa [26]) of 32 µg/mL (≈ 107 µM) and an MIC (Klebsiella pneumoniae [27]) of 0.25 µg/mL (≈ 0.835 µM). For the same compound, the MIC (Acinetobacter baumannii [28]) was 4 µg/mL (≈ 13.4 µM), the MIC (Pseudomonas aeruginosa [29]) was 2 µg/mL (≈ 6.68 µM) and the MIC (Acinetobacter baumannii [30]) was 0.5 µg/mL (≈ 1.67 µM). For the same compound, the MIC (Klebsiella pneumoniae [31]) was 2 µg/mL (≈ 6.68 µM), the MIC (Acinetobacter baumannii [32]) was 4 µg/mL (≈ 13.4 µM) and the MIC (Klebsiella pneumoniae [33]) was 0.25 µg/mL (≈ 0.835 µM). The MIC (Klebsiella pneumoniae [34]) was 8 µg/mL (≈ 26.7 µM), the MIC (Acinetobacter baumannii [35]) was 2 µg/mL (≈ 6.68 µM) and the MIC (Pseudomonas aeruginosa [36]) was 1 µg/mL (≈ 3.34 µM). The MIC (Escherichia coli [37]) was 0.25 µg/mL (≈ 0.835 µM), the MIC (Klebsiella pneumoniae [38]) was 4 µg/mL (≈ 13.4 µM) and the MIC (Acinetobacter baumannii [39]) was 2 µg/mL (≈ 6.68 µM). The MIC (Klebsiella pneumoniae [40]) was 0.5 µg/mL (≈ 1.67 µM), the MIC (Acinetobacter baumannii [41]) was 4 µg/mL (≈ 13.4 µM) and the MIC (Klebsiella pneumoniae [42]) was 8 µg/mL (≈ 26.7 µM). It also gave an MIC (Acinetobacter baumannii [43]) of 0.5 µg/mL (≈ 1.67 µM), an MIC (Pseudomonas aeruginosa [44]) of 2 µg/mL (≈ 6.68 µM) and an MIC (Escherichia coli [45]) of 0.25 µg/mL (≈ 0.835 µM). The MIC (Acinetobacter baumannii [46]) was 2 µg/mL (≈ 6.68 µM), the MIC (Klebsiella pneumoniae [47]) was 0.5 µg/mL (≈ 1.67 µM) and the MIC (Acinetobacter baumannii [48]) was 0.5 µg/mL (≈ 1.67 µM). For the same compound, the MIC (Acinetobacter baumannii [49]) was 0.5 µg/mL (≈ 1.67 µM), the MIC (Escherichia coli [50]) was 0.5 µg/mL (≈ 1.67 µM) and the MIC (Escherichia coli [51]) was 0.125 µg/mL (≈ 0.418 µM). The MIC (Escherichia coli [52]) was 0.125 µg/mL (≈ 0.418 µM), the MIC (Pseudomonas aeruginosa [53]) was 16 µg/mL (≈ 53.4 µM) and the MIC (Acinetobacter baumannii [54]) was 8 µg/mL (≈ 26.7 µM). For the same compound, the MIC (Escherichia coli [55]) was 0.125 µg/mL (≈ 0.418 µM).
